Experimental data published in ChEMBL document CHEMBL5209564, “Superclomeleon biosensor based assay for SLC12A3 using HEK-293 SLC12A3 OE cells” (2022).

Target: T1, Solute carrier family 12 member 3 (Homo sapiens) (UniProt P55017)
T1 sequence (whole entry): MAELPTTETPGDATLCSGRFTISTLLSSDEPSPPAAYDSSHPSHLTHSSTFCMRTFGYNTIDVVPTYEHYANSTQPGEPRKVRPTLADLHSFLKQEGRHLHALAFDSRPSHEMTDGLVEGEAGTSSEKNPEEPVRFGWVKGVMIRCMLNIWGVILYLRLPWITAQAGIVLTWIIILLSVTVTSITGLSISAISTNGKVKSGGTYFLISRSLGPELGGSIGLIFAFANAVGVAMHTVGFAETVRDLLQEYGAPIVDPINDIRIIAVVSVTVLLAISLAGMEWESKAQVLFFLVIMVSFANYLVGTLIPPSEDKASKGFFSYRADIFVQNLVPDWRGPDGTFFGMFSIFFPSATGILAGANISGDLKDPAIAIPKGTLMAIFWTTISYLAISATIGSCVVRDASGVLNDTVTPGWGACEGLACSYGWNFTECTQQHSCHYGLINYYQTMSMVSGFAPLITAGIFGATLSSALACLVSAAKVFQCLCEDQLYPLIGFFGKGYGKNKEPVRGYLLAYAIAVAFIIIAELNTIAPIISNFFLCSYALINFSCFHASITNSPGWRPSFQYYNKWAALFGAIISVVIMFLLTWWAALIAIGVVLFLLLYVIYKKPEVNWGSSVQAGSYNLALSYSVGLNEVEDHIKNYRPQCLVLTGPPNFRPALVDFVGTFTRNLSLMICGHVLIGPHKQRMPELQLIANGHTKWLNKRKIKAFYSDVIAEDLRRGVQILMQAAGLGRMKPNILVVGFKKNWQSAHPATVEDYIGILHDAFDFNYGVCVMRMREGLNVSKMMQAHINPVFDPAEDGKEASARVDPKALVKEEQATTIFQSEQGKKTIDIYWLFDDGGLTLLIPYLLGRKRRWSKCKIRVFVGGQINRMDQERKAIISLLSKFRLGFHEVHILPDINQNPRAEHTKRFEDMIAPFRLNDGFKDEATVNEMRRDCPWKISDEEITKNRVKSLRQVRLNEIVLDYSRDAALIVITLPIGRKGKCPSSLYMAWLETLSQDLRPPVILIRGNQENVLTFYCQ
Conditions: HEK293
Description: Substrate uptake by the thiazide-sensitive electroneutral NaCl co-transporter (NCC, SLC12A3) as assessed by a Cl- sensitive FRET (Fluorescence Resonance Energy Transfer) sensor (SuperClomeleon) in HEK-293 JumpIN-SLC12A3 cells (PubChem AID: 1794834)

## Cl
  proof of principle: Substrate. In Comparison To Wild-Type And Not-Induced Cells, Cells With Induced Slc12A3 Expression Showed A Specific Transporter Activity, Upon Substrate Addition, Detected As Significantly Higher Sensor Fluorescence Quenching.
